Where two headings read alike, the source gives them in different places.
Legend:
[1] = biological target: T1, human PPARα (Homo sapiens, UniProt Q07869); test: Radioligand binding assay, GST-PPARα-LBD
T1 construct: PPARγ (aa 174 to 476) and PPARα (aa 167 to 469); made in house; host or cells: E. coli BL21(pLysS)
T1 sequence (Q07869 167-468 limits assumed): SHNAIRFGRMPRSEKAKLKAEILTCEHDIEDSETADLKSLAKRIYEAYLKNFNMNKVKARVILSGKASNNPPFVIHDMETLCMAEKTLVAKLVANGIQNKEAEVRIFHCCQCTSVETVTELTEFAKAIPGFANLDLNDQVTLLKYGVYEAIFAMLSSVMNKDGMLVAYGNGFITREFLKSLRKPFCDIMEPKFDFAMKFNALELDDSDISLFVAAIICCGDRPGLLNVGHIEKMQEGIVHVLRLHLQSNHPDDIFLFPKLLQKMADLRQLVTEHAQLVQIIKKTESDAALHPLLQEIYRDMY
Text: (§1) Full-length cDNA clones for human PPARα and mouse PPARγ were obtained by RT-PCR from human adipose and mouse liver cRNA, respectively, cloned into plasmid vectors and verified by DNA sequencing. […] To accomplish this, the portions of the cloned sequences encoding the LBDs were amplified from the full-length clones by PCR and then subcloned into the plasmid vectors. Final clones were verified by DNA sequence analysis.
(§2) Induction, expression, and purification of GST-LBD fusion proteins were performed in E. coli strain BL21(pLysS) cells by standard methods (Ref: Current Protocols in Molecular Biology, Wiley Press, edited by Ausubel et al.).
PPARα receptor binding was assayed in TKE10 (10 mM Tris-HCl, pH 8, 50 mM KCl, 2 mM EDTA, 0.1 mg/ml fatty acid free BSA and 10 mM DTT). For each 96 well 2.4 ug equivalent of GST-PPARα-LBD fusion protein and radioligand, e.g. 40000 dpm 2(S)-(2-benzoyl-phenylamino)-3-{4-[1,1-ditritio-2-(5-methyl-2-phenyl-oxazol-4-yl)-ethoxy]-phenyl}-propionic acid, were incubated in 100 ul volume at RT for 2 hrs. Bound ligand was removed from unbound ligand by solid phase separation using MultiScreen plates (Millipore) filled with 80 ul of SG25 according to the manufacturer's recommendations.
(§3) PPARγ receptor binding was assayed in TKE50 (50 mM Tris-HCl, pH 8, 50 mM KCl, 2 mM EDTA, 0.1 mg/ml fatty acid-free BSA and 10 mM DTT). For each 96 well reaction an 140 ng equivalent of GST-PPARγ-LBD fusion protein was bound to 10 ug SPA beads (PharmaciaAmersham) in a final volume of 50 ul by shaking. The resulting slurry was incubated for 1 h at RT and centrifuged for 2 min at 1300 g. The supernatant containing unbound protein was removed and the semidry pellet containig the recptor-coated beads was resolved in 50 ul of TKE. For radioligand binding e.g. 10000 dpm 2(S)-(2-benzoyl-phenylamino)-3-{4-[1,1-ditritio-2-(5-methyl-2-phenyl-oxazol-4-yl)-ethoxy]-phenyl}-propionic acid in 50 ul were added, the reaction incubated at RT for 1 h and scintillation proximity counting performed. All binding assays were performed in 96 well plates and the amount of bound ligand measured on a Packard TopCount using OptiPlates (Packard). Nonspecific binding was determined in the presence of 10^−4 M unlabelled compound. Dose response curves were done in triplicates within a range of concentration from 10^−10 M to 10^−4 M.

[2] = biological target: T1, human PPARα; test: Luciferase transcriptional reporter gene assay, pFA-PPARα-LBD in BHK21 cells; assay type: cell-based
Method: as §1
(§4) Baby hamster kidney cells (BHK21 ATCC CCL10) were grown in DMEM medium containing 10% FBS at 37° C. in a […] atmosphere. Cells were seeded in 6 well plates at a density of 10^5 Cells/well and then transiently batch-transfected with either the pFA-PPARγ-LBD or pFA-PPARα-LBD expression plasmids plus a reporter plasmid and an expression plasmid encoding the secretable form of alkaline phosphatase (SEAP) as a normalization control. […] Six hours following transfection, the cells were harvested by trypsinization and seeded in 96 well plates at a density of 10^4 cells/well. After 24 hours to allow attachment of cells, the medium was removed and replaced with 100 ul of phenol red-free medium containing the test substances or control ligands (final DMSO concentration: 0.1%). Following incubation of the cells for 24 hours with substances, 50 ul of the supernatant was recovered and analyzed for SEAP activity (Roche Molecular Biochemicals). The remainder of the supernatant was discarded, 50 ul PBS was added per well followed by one volume of Luciferase Constant-Light Reagent (Roche Molecular Biochemicals) to lyse the cells and initiate the luciferase reaction. Luminescence for both SEAP and luciferase was measured in a Packard TopCount. Luciferase activity was normalized to the SEAP control and transcriptional activation in the presence of a test substance was expressed as fold-activation over cells incubated in the absence of the substance. EC50 values were calculated using the XLfit program (ID Business Solutions Ltd. UK).

[3] = biological target: T2, mouse PPARγ (Mus musculus, UniProt P37238); test: Luciferase transcriptional reporter gene assay, pFA-PPARγ-LBD in BHK21 cells; assay type: cell-based; parameters: PPARγ (aa 174 to 476) and PPARα (aa 167 to 469); expressed in transfected cells; host or cells: BHK21 (ATCC CCL10)
T2 sequence (P37238 204-505): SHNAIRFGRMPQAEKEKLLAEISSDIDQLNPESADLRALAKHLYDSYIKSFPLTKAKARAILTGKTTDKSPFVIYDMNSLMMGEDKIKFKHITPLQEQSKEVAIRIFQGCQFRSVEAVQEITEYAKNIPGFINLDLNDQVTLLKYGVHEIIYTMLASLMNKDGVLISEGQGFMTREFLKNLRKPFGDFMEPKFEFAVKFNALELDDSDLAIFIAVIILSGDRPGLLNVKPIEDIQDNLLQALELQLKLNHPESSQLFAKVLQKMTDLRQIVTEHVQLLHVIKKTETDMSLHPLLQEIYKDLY
Method: as §1, §4

[4] = biological target: T2, mouse PPARγ; test: Radioligand binding assay (SPA), GST-PPARγ-LBD; parameters: PPARγ (aa 174 to 476)
Text: as §1, §2, §3

[5] = GST-PPARα-LBD, tritiated radioligand, RT 2 hrs, read-out: PPARα IC50
[6] = BHK21 cells transfected with pFA-PPARα-LBD, 24 hours incubation, read-out: PPARα EC50
[7] = BHK21 cells transfected with pFA-PPARγ-LBD, 24 hours incubation, read-out: PPARγ EC50
[8] = GST-PPARγ-LBD on SPA beads, tritiated radioligand, RT 1 h, read-out: PPARγ IC50

Compound | PPARα IC50 ([1]; GST-PPARα-LBD, tritiated radioligand, RT 2 hrs) | PPARα EC50 ([2]; BHK21 cells transfected with pFA-PPARα-LBD, 24 hours incubation) | EC50 [3] [nM] | IC50 [1, 5] [nM] | IC50 [4] [nM] | EC50 [2, 6] [nM] | EC50 [3, 7] [nM] | IC50 [1] [nM] | IC50 [4, 8] [nM] | EC50 [2] [nM]
CN(CCOc1ccc(CC2SC(=O)NC2=O)cc1)c1ccccn1 (centres unmarked) [Rosiglitazone, reference compound] | inactive | inactive | – | – | – | – | – | – | – | –
CCO[C@@H](Cc1ccc(OCc2nc(-c3ccc(OC(C)C)cc3)oc2C)cc1Cl)C(=O)O [Example 17, (S)-3-{2-Chloro-4-[2-(4-isopropoxy-phenyl)-5-methyl-oxazol-4-ylmethoxy]-phenyl}-2-ethoxy-propionic acid] | – | – | 174 | 73 | 31 | 186 | – | – | – | –
CCO[C@@H](Cc1ccc(OCc2nc(-c3ccc(C(C)C)cc3)oc2C)cc1OC)C(=O)O [Example 25, (S)-2-Ethoxy-3-{4-[2-(4-isopropyl-phenyl)-5-methyl-oxazol-4-ylmethoxy]-2-methoxy-phenyl}-propionic acid] | – | – | 75 | 177 | 129 | 26 | – | – | – | –
CO[C@@H](Cc1ccc(OCCc2nc(-c3ccccc3)oc2C)cc1O)C(=O)O [Example 23, (S)-3-{2-Hydroxy-4-[2-(5-methyl-2-phenyl-oxazol-4-yl)-ethoxy]-phenyl}-2-methoxy-propionic acid] | – | – | – | – | – | – | 138 | 52 | 48 | 306
CCO[C@@H](Cc1ccc(OCCCc2nc(-c3ccccc3)oc2C)cc1C)C(=O)O [Example 43, (S)-2-Ethoxy-3-{2-methyl-4-[3-(5-methyl-2-phenyl-oxazol-4-yl)-propoxy]-phenyl}-propionic acid] | – | – | – | – | – | – | 57 | 131 | 33 | 150
CCO[C@@H](Cc1c(C)cc(OCc2nc(-c3ccccc3)oc2C)cc1C)C(=O)O [Example 29, (S)-3-[2,6-Dimethyl-4-(5-methyl-2-phenyl-oxazol-4-ylmethoxy)-phenyl]-2-ethoxy-propionic acid] | – | – | 678 | 2380 | 1730 | 213 | – | – | – | –

Next, values leading:

PPARα IC50 ([1]; GST-PPARα-LBD, tritiated radioligand, RT 2 hrs) | PPARα EC50 ([2]; BHK21 cells transfected with pFA-PPARα-LBD, 24 hours incubation) | EC50 [3] [nM] | IC50 [1, 5] [nM] | IC50 [4] [nM] | EC50 [2, 6] [nM] | EC50 [3, 7] [nM] | IC50 [1] [nM] | IC50 [4, 8] [nM] | EC50 [2] [nM] | Compound
– | – | 33 | 196 | 129 | 21 | – | – | – | – | CCO[C@@H](Cc1ccc(OCc2nc(-c3ccc(F)c(C)c3)oc2C)cc1CC)C(=O)O [Example 9, (S)-2-Ethoxy-3-{2-ethyl-4-[2-(4-fluoro-3-methyl-phenyl)-5-methyl-oxazol-4-ylmethoxy]-phenyl}-propionic acid]
– | – | 115 | 30 | 58 | 163 | – | – | – | – | CCO[C@@H](Cc1ccc(OCc2nc(-c3ccc(OC(C)C)cc3)oc2C)cc1C)C(=O)O [Example 2, (S)-2-Ethoxy-3-{4-[2-(4-isopropoxy-phenyl)-5-methyl-oxazol-4-ylmethoxy]-2-methyl-phenyl}-propionic acid]
– | – | 87 | 87 | 506 | 57 | – | – | – | – | CCO[C@@H](Cc1ccc(OCc2nc(-c3ccccc3)oc2C)cc1C)C(=O)O [Example 3, (S)-2-Ethoxy-3-[2-methyl-4-(5-methyl-2-phenyl-oxazol-4-ylmethoxy)-phenyl]-propionic acid]
– | – | 124 | 155 | 146 | 38 | – | – | – | – | CCO[C@@H](Cc1ccc(OCc2nc(-c3ccc(F)c(C)c3)oc2C)cc1C)C(=O)O [Example 5, (S)-2-Ethoxy-3-{4-[2-(4-fluoro-3-methyl-phenyl)-5-methyl-oxazol-4-ylmethoxy]-2-methyl-phenyl}-propionic acid]

— patent US7348349B2, “Oxazole derivatives” (Hoffmann-La Roche Inc., priority 2002, dated 2008)
